Measurements published in patent US10335453B2, “Compositions and methods for improving sexual function” (Nymox Corporation, priority 2017, dated 2019).
Peptide text beside a SMILES is read from it.

Experiments:
[1] = tested on: patients with BPH; experiment: Example 1: Sexual Function Questionnaire (SFQ), treatment naïve BPH patients, one intraprostatic injection, 12 months follow-up; type: in vivo, human; details: at 12 months
Method: Three hundred and seventy (370) patients with BPH and with no prior history of any conventional approved medical or surgical treatment (“treatment naïve”) for BPH were given an intraprostatic injection of either (a) NX-1207 (2.5 mg) in phosphate buffered saline pH 7.2 (“PBS”) (n=213) or (b) PBS alone (n=157), under double-blind conditions by a urologist in an office setting under ultrasound guidance. These patients were followed for 12 months after treatment and their progress was monitored by urological investigations. Prior to their treatment each patient's sexual function was assessed by history and each patient completed a Sexual Function Questionnaire (“SFQ”) which scored from 0 to 12 points the degree to which the patient considered they had any problems with 1. lack of sex drive, 2. ability to get and keep an erection, and 3. problems with ejaculation, (Problem Assessment Scale of the Brief Male Sexual Function Inventory). A higher score indicates improvement with a better sexual functional self-assessment and less of a sexual problem; a lower score indicates worsening with more of a sexual problem. Many approved BPH medications and treatments are associated with lower scores. The SFQ was subsequently re-administered 12 months post-treatment. The difference from baseline score in the SFQ was compared in NX-1207 patients vs results in patients who received PBS alone.

[2] = tested on: BPH patients with significant sexual problems; experiment: Example 2: SFQ, treatment naïve BPH patients with significant sexual problems (baseline SFQ<=3), one intraprostatic injection, 12 months; type: in vivo, human; details: at 12 months
Method: One hundred twenty three (123) BPH patients with significant sexual problems and with no prior history of any conventional approved medical or surgical treatment (“treatment naïve”) for BPH were given an intraprostatic injection of either (a) NX-1207 (2.5 mg) in phosphate buffered saline pH 7.2 (“PBS”) (n=75) or (b) PBS alone (n=48), under double-blind conditions by a urologist in an office setting under ultrasound guidance. These patients were followed for 12 months after treatment and their progress was monitored by urological investigations. Prior to their treatment each patient's sexual function was assessed by history and each patient completed a Sexual Function Questionnaire (“SFQ”) which scored from 0 to 12 points the degree to which the patient considered they had any problems with 1. lack of sex drive, 2. ability to get and keep an erection, and 3. problems with ejaculation; (Problem Assessment Scale of the Brief Male Sexual Function Inventory). A higher score indicates improvement with a better sexual functional self-assessment and less of a sexual problem; a lower score indicates worsening with more of a sexual problem. Many approved BPH medications and treatments, and conditions are associated with lower scores. All 123 BPH patients in this group had baseline pre-treatment SFQ scores<=3 points indicating significant sexual problems. […]

[3] = tested on: BPH patients; experiment: Example 3: SFQ mean change, treatment naïve BPH patients, two NX-1207 injections vs PBS followed by one NX-1207 injection; details: human, in vivo
Method: One hundred and fifty six (156) BPH patients with no prior history of any conventional approved medical or surgical treatment (“treatment naïve”) for BPH were given an intraprostatic injection of either (a) NX-1207 (2.5 mg) in phosphate buffered saline pH 7.2 (“PBS”) (n=88) or (b) PBS alone (n=68), under double-blind conditions by a urologist in an office setting under ultrasound guidance. All patients were followed for a period of 12.6-51.1 months and then treated by a second open-label injection of NX-1207 (2.5 mg) in PBS. Prior to their treatment each patient's sexual function was assessed by history and each patient completed a Sexual Function Questionnaire (“SFQ”) which scored from 0 to 12 points the degree to which the patient considered they had any problems with 1. lack of sex drive, 2. ability to get and keep an erection, and 3. problems with ejaculation, (Problem Assessment Scale of the Brief Male Sexual Function Inventory). A higher score indicates improvement with a better sexual functional self-assessment and less of a sexual problem; a lower score indicates worsening with more of a sexual problem. Many approved BPH medications and treatments are associated with lower scores. The SFQ was subsequently re-administered 6 months post second treatment. […]

[4] = tested on: BPH patients; experiment: Example 4: proportion with no worsening or improvement in SFQ, two NX-1207 injections vs PBS followed by one NX-1207 injection; parameters: species or system human; details: in vivo
Method: One hundred and fifty (150) BPH patients with no prior history of any conventional approved medical or surgical treatment (“treatment naïve”) for BPH were given an intraprostatic injection of either (a) NX-1207 (2.5 mg) in phosphate buffered saline pH 7.2 (“PBS”) (n=83) or (b) PBS alone (n=67), under double-blind conditions by a urologist in an office setting under ultrasound guidance. All patients were followed for a period of 12.6-51.1 months and then treated by a second open-label injection of NX-1207 (2.5 mg) in PBS. Prior to their treatment each patient's sexual function was assessed by history and each patient completed a Sexual Function Questionnaire (“SFQ”) which scored from 0 to 12 points the degree to which the patient considered they had any problems with 1. lack of sex drive, 2. ability to get and keep an erection, and 3. problems with ejaculation, (Problem Assessment Scale of the Brief Male Sexual Function Inventory). A higher score indicates improvement with a better sexual functional self-assessment and less of a sexual problem; a lower score indicates worsening with more of a sexual problem. Many approved BPH medications and treatments are associated with lower scores. The SFQ was subsequently re-administered 6 months post second treatment. […]

[5] = tested on: BPH patients; experiment: Example 5: SFQ long-term mean change, treatment naive BPH patients, one injection, 12.6-51.1 months; type: in vivo, human; details: at 12.6-51.1 months
Method: One hundred and fifty (150) BPH patients with no prior history of any conventional approved medical or surgical treatment (“treatment naive”) for BPH were given an intraprostatic injection of either (a) (2.5 mg) NX-1207 (2.5 mg) in phosphate buffered saline pH 7.2 (“PBS”) (n=83) or (b) PBS alone (n=67) under double-blind conditions by a urologist in an office setting under ultrasound guidance. These patients were followed for 12.6-51.1 months after treatment and their progress was monitored by urological investigations. Prior to their treatment each patient's sexual function was assessed by history and each patient completed a Sexual Function Questionnaire (“SFQ”) which scored from 0 to 12 points the degree to which the patient considered they had any problems with 1. lack of sex drive, 2. ability to get and keep an erection, and 3. problems with ejaculation; (Problem Assessment Scale of the Brief Male Sexual Function Inventory). A higher score indicates improvement with a better sexual functional self-assessment and less of a sexual problem; a lower score indicates worsening with more of a sexual problem. Many approved BPH medications and treatments are associated with lower scores. The SFQ was subsequently re-administered 12.6-51.1 months post-treatment.

[6] = tested on: BPH patients; experiment: Example 6: proportion of treatment-naive BPH patients with SFQ<=3, NX-1207 vs PBS, 12.6-51.1 months; type: in vivo, human; details: at 12.6-51.1 months
Method: Three hundred twenty four (324) BPH patients were given an intraprostatic injection of either (a) NX-1207 (2.5 mg) in phosphate buffered saline pH 7.2 (“PBS”) (n=189) or (b) PBS alone (n=135), under double-blind conditions by a urologist in an office setting under ultrasound guidance. These patients were followed for 12.6-51.1 months after treatment and their progress was monitored by urological investigations. Prior to their treatment each patient's sexual function was assessed by history and each patient completed a Sexual Function Questionnaire (“SFQ”) which scored from 0 to 12 points the degree to which the patient considered they had any problems with 1. lack of sex drive, 2. ability to get and keep an erection, and 3. problems with ejaculation; (Problem Assessment Scale of the Brief Male Sexual Function Inventory). A higher score indicates improvement with a better sexual functional self-assessment and less of a sexual problem; a lower score indicates worsening with more of a sexual problem. Many approved BPH medications and treatments are associated with lower scores. Eighty nine (89) BPH patients in this group had baseline pre-treatment SFQ scores<=3 points indicating significant sexual problems. The SFQ was subsequently re-administered 12.6-51.1 months post-treatment. […]

[7] = tested on: BPH patients; experiment: Example 7: proportion of BPH patients with SFQ<=3, NX-1207 in treatment naive vs previously treated patients; type: in vivo, human; details: at 12.6-51.1 months
Method: Three hundred and twenty four (324) BPH patients were given an intraprostatic injection of either (a) NX-1207 (2.5 mg) in phosphate buffered saline pH 7.2 (“PBS”) (n=189) or (b) PBS alone (n=135), under double-blind conditions by a urologist in an office setting under ultrasound guidance. These patients were followed for 12.6-51.1 months after treatment and their progress was monitored by urological investigations. Prior to their treatment each patient's sexual function was assessed by history and each patient completed a Sexual Function Questionnaire (“SFQ”) which scored from 0 to 12 points the degree to which the patient considered they had any problems with 1. lack of sex drive, 2. ability to get and keep an erection, and 3. problems with ejaculation; (Problem Assessment Scale of the Brief Male Sexual Function Inventory). A higher score indicates improvement with a better sexual functional self-assessment and less of a sexual problem; a lower score indicates worsening with more of a sexual problem. Many approved BPH medications and treatments are associated with lower scores. Eighty nine (89) BPH patients in this group had baseline pre-treatment SFQ scores<=3 points indicating significant sexual problems. The SFQ was subsequently re-administered 12.6-51.1 months post-treatment. […]

[8] = tested on: prostate gland; details: human, in vivo; cited from earlier work

## CC[C@H](C)[C@H](N)C(=O)N[C@@H](CC(=O)O)C(=O)N[C@@H](CCC(N)=O)C(=O)N[C@@H](CCC(N)=O)C(=O)N[C@H](C(=O)N[C@@H](CC(C)C)C(=O)N[C@@H](CO)C(=O)N[C@@H](CCCNC(=N)N)C(=O)N[C@H](C(=O)N[C@@H](CCCCN)C(=O)N[C@@H](CC(C)C)C(=O)N[C@@H](CCC(=O)O)C(=O)N[C@H](C(=O)N[C@@H](CCCCN)C(=O)N[C@@H](CCCNC(=N)N)C(=O)N[C@@H](CS)C(=O)N[C@@H](CC(C)C)C(=O)O)[C@@H](C)CC)[C@@H](C)CC)C(C)C [SEQ ID NO: 66, IDQQVLSRIKLEIKRCL] (H-IDQQVLSRIKLEIKRCL-OH)
[1]
  sexual adverse events attributable to NX-1207: no significant incidence of sexual adverse events
[2]
  sexual adverse events attributable to NX-1207: no significant incidence of sexual adverse events
[3]
  sexual adverse events attributable to NX-1207: no significant incidence of sexual adverse events
[4]
  sexual adverse events attributable to NX-1207: no significant incidence of sexual adverse events
[5]
  sexual adverse events attributable to NX-1207: no significant incidence of sexual adverse events
[6]
  sexual adverse events attributable to NX-1207: no significant incidence of sexual adverse events
[7]
  sexual adverse events attributable to NX-1207: no incidence of significant sexual adverse events
[8]
  safety profile: excellent safety profile
